Results reported in patent US20210298306A1, “PESTICIDALLY ACTIVE AZOLE-AMIDE COMPOUNDS” (SYNGENTA PARTICIPATIONS AG, priority 2018, published 2021).
Values belong to the compound of their own block, whether it stands above or below them.

Key:
Plutella xylostella [1] = assay: Example B11: Plutella xylostella (diamondback moth), artificial diet, 96-well, eggs; assay type: in vivo; settings: 216 h, application rate 500 ppm, 9 days after infestation
Method: Example B11: Plutella xylostella (Diamondback Moth)
96-well microtiter plates containing artificial diet were treated with aqueous test solutions, prepared from 10,000 ppm DMSO stock solutions, by a liquid handling robot. After drying, eggs (˜30 per well) were infested onto a netted lid which was suspended above the diet. The eggs hatch and L1 larvae move down to the diet. The samples were assessed for mortality 9 days after infestation.
The following compounds gave an effect of at least 80% average mortality at an application rate of 500 ppm: […]

Spodoptera littoralis [2] = assay: Example B7: Spodoptera littoralis (Egyptian cotton leaf worm), cotton leaf discs sprayed, L1 larvae; assay type: in vivo; settings: foliar, 72 h, application rate 200 ppm, 3 days after infestation, read-out: control in at least one of the categories (mortality, anti-feedant effect, or growth inhibition)
Method: Example B7: Spodoptera littoralis (Egyptian Cotton Leaf Worm)
Cotton leaf discs were placed onto agar in 24-well microtiter plates and sprayed with aqueous test solutions prepared from 10,000 ppm DMSO stock solutions. After drying the leaf discs were infested with five L1 larvae. The samples were assessed for mortality, anti-feeding effect, and growth inhibition in comparison to untreated samples 3 days after infestation. Control of Spodoptera littoralis by a test sample is given when at least one of the categories mortality, anti-feedant effect, and growth inhibition is higher than the untreated sample.

Myzus persicae [3] = assay: Example B5: Myzus persicae (green peach aphid), feeding/contact activity, sunflower leaf discs; assay type: in vivo; settings: foliar, 144 h, application rate 200 ppm, 6 days after infestation, Myzus persicae mixed ages
Method: Example B5: Myzus persicae (Green Peach Aphid):Feeding/Contact Activity
(§1) Sunflower leaf discs were placed onto agar in a 24-well microtiter plate and sprayed with aqueous test solutions prepared from 10,000 ppm DMSO stock solutions. After drying, the leaf discs were infested with an aphid population of mixed ages. The samples were assessed for mortality 6 days after infestation.

Chilo suppressalis = assay: Example B3: Chilo suppressalis (striped rice stemborer), artificial diet, L2 larvae; assay type: in vivo; settings: 144 h, application rate 200 ppm, 6 days after infestation, read-out: control in at least one of the categories (mortality, anti-feedant effect, or growth inhibition)
Method: Example B3: Chilo suppressalis (Striped Rice Stemborer)
24-well microtiter plates with artificial diet were treated with aqueous test solutions prepared from 10,000 ppm DMSO stock solutions by pipetting. After drying, the plates were infested with L2 larvae (6-8 per well). The samples were assessed for mortality, anti-feeding effect, and growth inhibition in comparison to untreated samples 6 days after infestation. Control of Chilo suppressalis by a test sample is given when at least one of the categories mortality, anti-feedant effect, and growth inhibition is higher than the untreated sample.

Plutella xylostella [4] = assay: Example B4: Plutella xylostella (diamond back moth), artificial diet, 24-well, eggs; assay type: in vivo; settings: 192 h, application rate 200 ppm, 8 days after infestation, read-out: effect in at least one of the two categories (mortality or growth inhibition)
Method: Example B4: Plutella xylostella (Diamond Back Moth)
24-well microtiter plates with artificial diet were treated with aqueous test solutions prepared from 10,000 ppm DMSO stock solutions by pipetting. After drying, Plutella eggs were pipetted through a plastic stencil onto a gel blotting paper and the plate was closed with it. The samples were assessed for mortality and growth inhibition in comparison to untreated samples 8 days after infestation.
(§2) The following compounds gave an effect of at least 80% in at least one of the two categories (mortality or growth inhibition) at an application rate of 200 ppm: […]

Diabrotica balteata = assay: Example B1: Diabrotica balteata (corn root worm), maize sprouts sprayed, L2 larvae; assay type: in vivo; settings: 96 h, application rate 200 ppm, 4 days after infestation, read-out: effect in at least one of the two categories (mortality or growth inhibition)
Method: Example B1: Diabrotica Balteata (Corn Root Worm)
Maize sprouts placed onto an agar layer in 24-well microtiter plates were treated with aqueous test solutions prepared from 10,000 ppm DMSO stock solutions by spraying. After drying, the plates were infested with L2 larvae (6 to 10 per well). The samples were assessed for mortality and growth inhibition in comparison to untreated samples 4 days after infestation.
as §2

Myzus persicae [5] = assay: Example B6: Myzus persicae (green peach aphid), intrinsic activity, sucrose solution, 24-well; assay type: in vivo; settings: 120 h, test rate 12 ppm, 5 days after infestation
Source text: Example B6: Myzus persicae (Green Peach Aphid). Intrinsic Activity
Test compounds prepared from 10,000 ppm DMSO stock solutions were applied by pipette into 24-well microtiter plates and mixed with sucrose solution. The plates were closed with a stretched Parafilm. A plastic stencil with 24 holes was placed onto the plate and infested pea seedlings were placed directly on the Parafilm. The infested plate was closed with a gel blotting paper and another plastic stencil and then turned upside down. The samples were assessed for mortality 5 days after infestation.

Euschistus heros = assay: Example B2: Euschistus heros (neotropical brown stink bug), soybean leaves sprayed, N2 nymphs; assay type: in vivo; settings: 120 h, application rate 200 ppm, 5 days after infestation, read-out: effect in at least one of the two categories (mortality or growth inhibition)
Method: Example B2: Euschistus heros (Neotropical Brown Stink Bug)
Soybean leaves on agar in 24-well microtiter plates were sprayed with aqueous test solutions prepared from 10,000 ppm DMSO stock solutions. After drying the leaves were infested with N2 nymphs. The samples were assessed for mortality and growth inhibition in comparison to untreated samples 5 days after infestation.
as §2

Myzus persicae [6] = assay: Example B10: Myzus persicae (green peach aphid), sucrose solution, 96-well; assay type: in vivo; settings: 120 h, application rate 50 ppm, 5 days after infestation
Source text: Example B10: Myzus persicae (Green Peach Aphid)
Test compounds prepared from 10,000 ppm DMSO stock solutions were applied by a liquid handling robot into 96-well microtiter plates and mixed with a sucrose solution. Parafilm was stretched over the 96-well microtiter plate and a plastic stencil with 96 holes was placed onto the plate. Aphids were sieved into the wells directly onto the Parafilm. The infested plates were closed with a gel blotting card and a second plastic stencil and then turned upside down. The samples were assessed for mortality 5 days after infestation.

Thrips tabaci = assay: Example B9: Thrips tabaci (onion thrips), feeding/contact activity, sunflower leaf discs; assay type: in vivo; settings: foliar, 144 h; application rate 200 ppm; 6 days after infestation; Thrips tabaci mixed ages
Method: Example B9: Thrips tabaci (Onion Thrips) Feeding/Contact Activity
as §1, with “on” for “onto”, “in” for “in a”, “plates” for “plate”, “drying” for “drying,”, “a thrips” for “an aphid”

Spodoptera littoralis [7] = assay: Example B8: Spodoptera littoralis (Egyptian cotton leaf worm), uptake by lettuce roots from agar, eggs; assay type: in vivo; settings: 144 h, test rate 12.5 ppm, 6 days after infestation, lettuce root uptake, read-out: effect in at least one of the three categories (mortality, anti-feeding, or growth inhibition)
Source text: Example B8: Spodoptera littoralis (Egyptian Cotton Leaf Worm)
Test compounds were applied by pipette from 10,000 ppm DMSO stock solutions into 24-well plates and mixed with agar. Lettuce seeds were placed onto the agar and the multi well plate was closed by another plate which contained also agar. After 7 days the compound was absorbed by the roots and the lettuce grew into the lid plate. The lettuce leaves were then cut off into the lid plate. Spodoptera eggs were pipetted through a plastic stencil onto a humid gel blotting paper and the lid plate was closed with it. The samples were assessed for mortality, anti-feedant effect and growth inhibition in comparison to untreated samples 6 days after infestation.
The following compounds gave an effect of at least 80% in at least one of the three categories (mortality, anti-feeding, or growth inhibition) at a test rate of 12.5 ppm: […]

Compound: CC(NC(=O)c1cc(OC(F)(F)F)cc(C(F)(F)F)c1)c1ncnn1-c1ncccn1 (centres unmarked) [P19, N-[1-(2-pyrimidin-2-yl-1,2,4-triazol-3-yl)ethyl]-3-(trifluoromethoxy)-5-(trifluoromethyl) benzamide]
- mortality at 500 ppm (Plutella xylostella [1]): ≥ 80%
- percent control (mortality, anti-feedant effect or growth inhibition) at 200 ppm (Spodoptera littoralis [2]): ≥ 80%
- mortality at 200 ppm (Myzus persicae [3]): ≥ 80%
- percent control (mortality, anti-feedant effect or growth inhibition) at 200 ppm (Chilo suppressalis): ≥ 80%
- percent effect (mortality or growth inhibition) at 200 ppm (Plutella xylostella [4]): ≥ 80%
- percent effect (mortality or growth inhibition) at 200 ppm (Diabrotica balteata): ≥ 80%
- mortality at 12 ppm (Myzus persicae [5]): ≥ 80%
- percent effect (mortality or growth inhibition) at 200 ppm (Euschistus heros): ≥ 80%
- mortality at 50 ppm (Myzus persicae [6]): ≥ 80%

Compound: CC(c1ncnn1-c1ncccn1)N(CC1CC1)C(=O)c1cc(SC(F)F)cc(C(F)(F)F)c1 (centres unmarked) [P18, N-(cyclopropylmethyl)-3-(difluoromethylsulfanyl)-N-[1-(2-pyrimidin-2-yl-1,2,4-triazol-3-yl)ethyl]-5-(trifluoromethyl) benzamide]
- mortality at 500 ppm (Plutella xylostella [1]): ≥ 80%
- mortality at 200 ppm (Thrips tabaci): ≥ 80%
- mortality at 200 ppm (Myzus persicae [3]): ≥ 80%
- percent effect (mortality or growth inhibition) at 200 ppm (Plutella xylostella [4]): ≥ 80%
- percent effect (mortality or growth inhibition) at 200 ppm (Diabrotica balteata): ≥ 80%
- mortality at 12 ppm (Myzus persicae [5]): ≥ 80%
- percent effect (mortality or growth inhibition) at 200 ppm (Euschistus heros): ≥ 80%
- mortality at 50 ppm (Myzus persicae [6]): ≥ 80%

Compound: CC(NC(=O)c1cc(OCC(F)(F)F)cc(C(F)(F)F)c1)c1ncnn1-c1ncccc1F (centres unmarked) [P14, N-[1-[2-(3-fluoro-2-pyridyl)-1,2,4-triazol-3-yl]ethyl]-3-(2,2,2-trifluoroethoxy)-5-(trifluoromethyl) benzamide]
- mortality at 500 ppm (Plutella xylostella [1]): ≥ 80%
- percent control (mortality, anti-feedant effect or growth inhibition) at 200 ppm (Spodoptera littoralis [2]): ≥ 80%
- percent effect (mortality or growth inhibition) at 200 ppm (Plutella xylostella [4]): ≥ 80%
- percent effect (mortality or growth inhibition) at 200 ppm (Diabrotica balteata): ≥ 80%
- percent effect (mortality or growth inhibition) at 200 ppm (Euschistus heros): ≥ 80%
- mortality at 50 ppm (Myzus persicae [6]): ≥ 80%

- melting point: 105 to 110 °C
Compound: CC(NC(=O)c1cncc(OC(F)F)c1)c1ncnn1-c1ccccn1 (centres unmarked) [P23, 5-(difluoromethoxy)-N-[1-[2-(2-pyridyl)-1,2,4-triazol-3-yl]ethyl]pyridine-3-carboxamide]

Compound: CC(NC(=O)c1cc(OCC(F)F)cc(C(F)(F)F)c1)c1ncnn1-c1ncccn1 (centres unmarked) [P20, 3-(2,2-difluoroethoxy)-N-[1-(2-pyrimidin-2-yl-1,2,4-triazol-3-yl)ethyl]-5-(trifluoromethyl) benzamide]
- mortality at 500 ppm (Plutella xylostella [1]): ≥ 80%
- percent control (mortality, anti-feedant effect or growth inhibition) at 200 ppm (Spodoptera littoralis [2]): ≥ 80%
- mortality at 200 ppm (Myzus persicae [3]): ≥ 80%
- percent control (mortality, anti-feedant effect or growth inhibition) at 200 ppm (Chilo suppressalis): ≥ 80%
- percent effect (mortality or growth inhibition) at 200 ppm (Plutella xylostella [4]): ≥ 80%
- mortality at 12 ppm (Myzus persicae [5]): ≥ 80%
- percent effect (mortality or growth inhibition) at 200 ppm (Euschistus heros): ≥ 80%
- mortality at 50 ppm (Myzus persicae [6]): ≥ 80%

Compound: CC(c1ncnn1-c1ncccn1)N(CC1CC1)C(=O)c1cc(OC(F)(F)F)cc(C(F)(F)F)c1 (centres unmarked) [P4, N-(cyclopropylmethyl)-N-[1-(2-pyrimidin-2-yl-1,2,4-triazol-3-yl)ethyl]-3-(trifluoromethoxy)-5-(trifluoromethyl) benzamide]
- percent control (mortality, anti-feedant effect or growth inhibition) at 200 ppm (Spodoptera littoralis [2]): ≥ 80%
- mortality at 200 ppm (Myzus persicae [3]): ≥ 80%
- percent control (mortality, anti-feedant effect or growth inhibition) at 200 ppm (Chilo suppressalis): ≥ 80%
- percent effect (mortality or growth inhibition) at 200 ppm (Plutella xylostella [4]): ≥ 80%
- percent effect (mortality or growth inhibition) at 200 ppm (Diabrotica balteata): ≥ 80%
- mortality at 12 ppm (Myzus persicae [5]): ≥ 80%
- percent effect (mortality or growth inhibition) at 200 ppm (Euschistus heros): ≥ 80%

Compound: CC(c1ncnn1-c1ncccn1)N(CC1CC1)C(=O)c1cc(SC(F)(F)F)cc(C(F)(F)F)c1 (centres unmarked) [P5, N-(cyclopropylmethyl)-N-[1-(2-pyrimidin-2-yl-1,2,4-triazol-3-yl)ethyl]-3-(trifluoromethyl)-5-(trifluoromethylsulfanyl) benzamide]
- percent effect (mortality, anti-feeding or growth inhibition) at 12.5 ppm (Spodoptera littoralis [7]): ≥ 80%
- percent control (mortality, anti-feedant effect or growth inhibition) at 200 ppm (Spodoptera littoralis [2]): ≥ 80%
- mortality at 200 ppm (Thrips tabaci): ≥ 80%
- percent control (mortality, anti-feedant effect or growth inhibition) at 200 ppm (Chilo suppressalis): ≥ 80%
- percent effect (mortality or growth inhibition) at 200 ppm (Plutella xylostella [4]): ≥ 80%
- percent effect (mortality or growth inhibition) at 200 ppm (Diabrotica balteata): ≥ 80%
- mortality at 12 ppm (Myzus persicae [5]): ≥ 80%
- percent effect (mortality or growth inhibition) at 200 ppm (Euschistus heros): ≥ 80%

Compound: CC(c1ncnn1-c1ncccn1)N(CC1CC1)C(=O)c1cc(OC(F)F)cc(C(F)(F)F)c1 (centres unmarked) [P2, N-(cyclopropylmethyl)-3-(difluoromethoxy)-N-[1-(2-pyrimidin-2-yl-1,2,4-triazol-3-yl)ethyl]-5-(trifluoromethyl) benzamide]
- percent effect (mortality, anti-feeding or growth inhibition) at 12.5 ppm (Spodoptera littoralis [7]): ≥ 80%
- percent control (mortality, anti-feedant effect or growth inhibition) at 200 ppm (Spodoptera littoralis [2]): ≥ 80%
- mortality at 200 ppm (Thrips tabaci): ≥ 80%
- mortality at 200 ppm (Myzus persicae [3]): ≥ 80%
- percent control (mortality, anti-feedant effect or growth inhibition) at 200 ppm (Chilo suppressalis): ≥ 80%
- percent effect (mortality or growth inhibition) at 200 ppm (Plutella xylostella [4]): ≥ 80%
- percent effect (mortality or growth inhibition) at 200 ppm (Diabrotica balteata): ≥ 80%
- mortality at 12 ppm (Myzus persicae [5]): ≥ 80%
- percent effect (mortality or growth inhibition) at 200 ppm (Euschistus heros): ≥ 80%
